Counter-ions that a name gives are not always drawn.
Legend:
Pseudomonas aeruginosa [1] = assay: Challenge test in shampoo, number of surviving (viable) bacteria; format: cell-based, Pseudomonas aeruginosa (ATCC 19429)
Experimental: (§1) Further aspects of the present invention are described in the following illustrative examples. Unless otherwise stated all refer to parts by weight. Also, personal care formulations in accordance with the present invention were subjected to evaluation of the antimicrobial properties of the composition. The anti-microbial evaluation was effected, under aseptic conditions throughout, in the following manner.
(§2) In the anti-microbial evaluation, the formulations were tested for anti-microbial activity against bacteria and/or fungi. The bacteria used were either Pseudomonas aeruginosa or Staphylococcusaureus. The fungus used was Candida albicans.
Aliquots (4 parts) of the above shampoo were then prepared with concentrations of the biocides indicated in Table 3 at 500 and 125 ppm of active ingredient.
The above samples were then challenged with a 0.2 parts by volume inoculum of a 24 hour culture of Pseudomonas aeruginosa (ATCC 19429) containing approximately 1×10^8 colony forming units (cfu's) per milliliter. The samples were then incubated in the dark at 25° C., 1 milliliter samples taken after 24 hours, 48 hours and 7 days and the number of surviving bacteria determined.
The procedure of Examples 4-14 were repeated using the 1:1 silver complex of N-methyl-N-hydroxythiobenzamide at four different concentrations.

Staphylococcus aureus = assay: Anti-microbial challenge test in oil in water emulsion (base cream), Staphylococcus aureus; format: cell-based, Staphylococcus aureus (ATCC 6538); settings: viable count < 10^2 cells cm^-3; for MLC, SA, 7d: 7 days
Experimental: as §1, §2
(§3) To aliquots (20 parts) of the emulsion were added various anti-microbial agents at concentrations of 500, 125, 31.25 and 7.8 ppm of active ingredients.
(§4) One sample of each mixture was inoculated with 0.2 parts by volume of a 24 hour culture of Staphylococcus aureus (ATCC 6538) containing 10^8 cells cm^-3. Duplicate samples of each mixture were inoculated with 0.2 parts by volume of a 48 hour culture of Candida albicans (ATCC 10231) containing 10^8 cells cm^-3.
(§5) The samples were then incubated and samples removed after 24 hours, 48 hours and 7 days as described in Examples 1 and 2 with the exception that the samples were not subjected to a further challenge after seven days.

Candida albicans = assay: Anti-microbial challenge test in oil in water emulsion (base cream), Candida albicans; format: cell-based, Candida albicans (ATCC 10231); settings: viable count < 10^2 cells cm^-3; for MLC, CA, 7d: 7 days
Experimental: as §1, §2, §3, §4, §5

Pseudomonas aeruginosa [2] = assay: Anti-microbial challenge test in protein-containing shampoo (MLC, two challenges); format: cell-based, Pseudomonas aeruginosa (ATCC 19429); settings: viable count < 10^2 cells cm^-3; for MLC, Challenge 1, 48h / MLC, Challenge 1, 7d: first challenge; for MLC, Challenge 1, 7d / MLC, Challenge 2, 7d: 7 days
Experimental: as §1, §2
To aliquots (20 parts) of the shampoo formulation prepared as described were added various anti-microbial agents at concentrations of 125, 62.5, 31.25, 7.8 and 1.56 ppm of active ingredient, not all of the anti-microbial agents being used at all of these levels. The anti-microbial agents, and the levels used are as set out in Table One.
One sample of a mixture of the shampoo formulation and the anti-microbial agent was stored for one month (4 weeks) at 40° C. and a duplicate sample of the mixture was stored for one month at ambient temperature (about 20° C.).
The variants thus obtained were then challenged with a 0.2 parts by volume inoculum of a 24 hour culture of Pseudomonas aeruginosa (ATCC 19429) containing approximately 1×10^8 colony forming units (cfu's) per cm^3. The variants were than incubated in the dark at 25° C., and samples (one cm^3) were taken after 24 hours, 48 hours and 7 days. The number of surviving bacteria was determined by the decimal dilution method and the viable cells enumerated by incubation of the survivor detection plates at 30° C. for three days.
The results are shown in Table One in which the concentration of anti-microbial agent is the minimum required to reduce the count of viable cells to less than 10^2 cells cm^-3.
After removing the seven day sample, the samples of the shampoo formulation were challenged with a further 0.2 parts of a similar Pseudomonas aeruginosa culture and incubation at 25° C. was continued. Further one cm^3 samples were removed after 24 hours, 48 hours and 7 days and the number of surviving bacteria was determined in the same manner.

[3] = (S): shampoo stored one month at 40° C.
[4] = (S): shampoo stored one month at 40° C., second challenge
[5] = shampoo stored one month at ambient temperature
[6] = shampoo stored one month at ambient temperature, second challenge

SMILES	Viable bacteria after 24 hr (Pseudomonas aeruginosa [1]; Table 3, 125 ppm)	Viable bacteria after 48 hr (Pseudomonas aeruginosa [1]; Table 3, 125 ppm)	Viable bacteria after 7 days (Pseudomonas aeruginosa [1]; Table 3, 125 ppm)	Viable bacteria after 24 hr (Pseudomonas aeruginosa [1]; Table 3, 500 ppm)	Viable bacteria after 48 hr (Pseudomonas aeruginosa [1]; Table 3, 500 ppm)	Viable bacteria after 7 days (Pseudomonas aeruginosa [1]; Table 3, 500 ppm)	also measured
Cc1csc(=S)n1O [Example 4, 3hydroxy-4-methylthiazol-2(3H)-thione]	1.7 E4	> 3.0 E4	> 3.0 E4	1.2 E4	> 3.0 E4	> 3.0 E4	–
Cc1csc(=S)n1[O-].Cc1csc(=S)n1[O-].Cc1csc(=S)n1[O-].[Y+3] [Example 6]	4.5 E4	> 1.0 E4	< 3.0 E4	1.4 E4	> 3.0 E4	< 3.0 E4	–
Cc1csc(=S)n1[O-].Cc1csc(=S)n1[O-].[Mn+2] [Example 7]	2.4 E4	> 3.0 E4	> 3.0 E4	3.5 E4	> 3.0 E4	> 3.0 E4	–
Cc1csc(=S)n1[O-].Cc1csc(=S)n1[O-].Cc1csc(=S)n1[O-].[Co+3] [Example 8]	2.1 E3	< 10	< 10	1.2 E3	< 10	< 10	–
Cc1csc(=S)n1[O-].Cc1csc(=S)n1[O-].Cc1csc(=S)n1[O-].[Sc+3] [Example 9]	2.6 E3	8.0	< 10	2.0 E3	1.7 E2	< 10	–
Cc1csc(=S)n1[O-].Cc1csc(=S)n1[O-].Cc1csc(=S)n1[O-].[In+3] [Example 11]	9.1 E2	< 10	< 10	< 10	< 10	< 10	–
Cc1csc(=S)n1[O-].Cc1csc(=S)n1[O-].[O]=[V+2] [Example 12]	1.5 E4	> 3.0 E4	8.3 E5	1.3 E3	< 10	< 10	–
Cc1csc(=S)n1[O-].Cc1csc(=S)n1[O-].[Co+2] [Example 13]	2.1 E3	< 10	< 10	5.2 E2	< 10	< 10	–
Cc1csc(=S)n1[O-].Cc1csc(=S)n1[O-].[Zn+2] [Example 14]	3.3 E3	< 10	< 10	4.4 E3	< 10	< 10	–
CN(O)C(=S)c1ccccc1.[Ag] [Example 15, 1:1 silver complex of N-methyl-N-hydroxythiobenzamide]	–	–	–	–	–	–	Viable bacteria after 24 hrs (Pseudomonas aeruginosa [1]; Table 4, 7.13 ppm): < 10; Viable bacteria after 48 hrs (Pseudomonas aeruginosa [1]; Table 4, 7.13 ppm): < 10; Viable bacteria after 7 days (Pseudomonas aeruginosa [1]; Table 4, 7.13 ppm): < 10; Viable bacteria after 24 hrs (Pseudomonas aeruginosa [1]; Table 4, 31.25 ppm): < 10; Viable bacteria after 48 hrs (Pseudomonas aeruginosa [1]; Table 4, 31.25 ppm): < 10; Viable bacteria after 7 days (Pseudomonas aeruginosa [1]; Table 4, 31.25 ppm): < 10; Viable bacteria after 24 hrs (Pseudomonas aeruginosa [1]; Table 4, 125 ppm): < 10; Viable bacteria after 48 hrs (Pseudomonas aeruginosa [1]; Table 4, 125 ppm): < 10; Viable bacteria after 7 days (Pseudomonas aeruginosa [1]; Table 4, 125 ppm): < 10; Viable bacteria after 24 hrs (Pseudomonas aeruginosa [1]; Table 4, 500 ppm): < 10; Viable bacteria after 48 hrs (Pseudomonas aeruginosa [1]; Table 4, 500 ppm): < 10; Viable bacteria after 7 days (Pseudomonas aeruginosa [1]; Table 4, 500 ppm): < 10
On1ccccc1=S [SP, sodium salt of 1hydroxy-2-pyridinethione]	–	–	–	–	–	–	MLC, SA, 24h (Staphylococcus aureus): > 500 ppm w/v; MLC, SA, 48h (Staphylococcus aureus): 500 ppm w/v; MLC, SA, 7d (Staphylococcus aureus): 125 ppm w/v; MLC, CA, 24h (Candida albicans): 500 ppm w/v; MLC, CA, 48h (Candida albicans): 500 ppm w/v; MLC, CA, 7d (Candida albicans): 31.25 ppm w/v
[O-]n1ccccc1=S.[O-]n1ccccc1=S.[Zn+2] [ZP, 1:2 complex of zinc with 1hydroxy-2-pyridinethione]	–	–	–	–	–	–	MLC, SA, 24h (Staphylococcus aureus): > 500 ppm w/v; MLC, SA, 48h (Staphylococcus aureus): > 500 ppm w/v; MLC, SA, 7d (Staphylococcus aureus): 500 ppm w/v; MLC, CA, 24h (Candida albicans): 500 ppm w/v; MLC, CA, 48h (Candida albicans): 500 ppm w/v; MLC, CA, 7d (Candida albicans): 31.25 ppm w/v
Cc1csc(=S)n1O.Cc1csc(=S)n1O.[Zn] [ZTA, 2:1 complex of 3hydroxy-4-methyl-thiazol-2(3H) thione and zinc]	6.2 E3	< 10	< 10	7.6 E3	< 10	< 10	MLC, SA, 24h (Staphylococcus aureus): 500 ppm w/v; MLC, SA, 48h (Staphylococcus aureus): 31.25 ppm w/v; MLC, SA, 7d (Staphylococcus aureus): 7.8 ppm w/v; MLC, Challenge 1, 48h (Pseudomonas aeruginosa [2]; [3]): 62.5 ppm w/v; MLC, Challenge 1, 7d (Pseudomonas aeruginosa [2]; [3]): 62.5 ppm w/v; MLC, Challenge 2, 48h (Pseudomonas aeruginosa [2]; [4]): 62.5 ppm w/v; MLC, Challenge 2, 7d (Pseudomonas aeruginosa [2]; [4]): 62.5 ppm w/v; MLC, Challenge 1, 48h (Pseudomonas aeruginosa [2]; [5]): 7.8 ppm w/v; MLC, Challenge 1, 7d (Pseudomonas aeruginosa [2]; [5]): 7.8 ppm w/v; MLC, Challenge 2, 24h (Pseudomonas aeruginosa [2]; shampoo stored one month at ambient temperature, second challenge, 24 h): 31.25 ppm w/v; MLC, Challenge 2, 48h (Pseudomonas aeruginosa [2]; [6]): 31.25 ppm w/v; MLC, Challenge 2, 7d (Pseudomonas aeruginosa [2]; [6]): 31.25 ppm w/v; MLC, CA, 24h (Candida albicans): 31.25 ppm w/v; MLC, CA, 48h (Candida albicans): 31.25 ppm w/v; MLC, CA, 7d (Candida albicans): 31.25 ppm w/v

From patent publication US5500217A, “Personal care formulations” (priority 1991, dated 1996)
